Results on four compounds are retold here after paper PMC10167036, “The discovery and characterization of AeHGO in the branching route from shikonin biosynthesis to shikonofuran in Arnebia euchroma” (Frontiers in Plant Science, 2023).

This test deals with T1, AeHGO.
T1 construct: full-length, N-terminal His-tag (pCold II), E. coli Transetta, IMAC purified, tag cut not mentioned; cloning primers encode N-terminus MGNSAE and C-terminus NTLKTA
In words: UPLC product assay, Michaelis-Menten fit. Format: biochemical, Arnebia euchroma. Conditions: basic assay 50 mM MES-Tris pH 7.5, 37°C. The text has this:
UPLC product assay, Michaelis-Menten fit on AeHGO

[1] abbreviates: oxidation, 500 µM NADP+, apparent.

Structures are written as SMILES.

For orientation: Km means the substrate concentration at which the rate is half of its maximum. As to `NC(=O)c1ccc[n+]([C@@H]2O[C@H](COP(=O)(O)OP(=O)(O)OC[C@H]3O[C@@H](n4cnc5c(N)ncnc54)[C@H](OP(=O)(O)O)[C@@H]3O)[C@@H](O)[C@H]2O)c1` [NADP^+], under “oxidation, 500 µM (Z)-3''-OH-GHQ”, the Km is 17.8 ± 5.62 µM.
Take `CC(C)=CCC/C(=C/Cc1cc(O)ccc1O)CO` [compound 1, (Z)-3’’-OH-GHQ]: the Km under setting [1] amounted to 24.7 ± 5.18 µM.
Take `CC(C)=CCC/C(=C\Cc1cc(O)ccc1O)CO` [compound 2, (E)-3’’-OH-GHQ]: the Km under setting [1] was found to be 18.7 ± 5.39 µM.
`CC(C)=CCC/C(C=O)=C\Cc1cc(O)ccc1O` [compound 3, (E)-3’’-oxo-GHQ]: under “reduction, 500 µM NADPH, apparent, fit at low substrate concentrations because of substrate inhibition”, the Km was found to be 9.96 ± 2.87 µM.
